Data on 13 compounds can be found in ChEMBL document CHEMBL5291721, “A preclinical secondary pharmacology resource illuminates target-adverse drug reaction associations of marketed drugs” (Nat Commun, 2023).

The target of assay [1] is T1, Androgen receptor (Homo sapiens, UniProt P10275).
T1 sequence (P10275 whole entry): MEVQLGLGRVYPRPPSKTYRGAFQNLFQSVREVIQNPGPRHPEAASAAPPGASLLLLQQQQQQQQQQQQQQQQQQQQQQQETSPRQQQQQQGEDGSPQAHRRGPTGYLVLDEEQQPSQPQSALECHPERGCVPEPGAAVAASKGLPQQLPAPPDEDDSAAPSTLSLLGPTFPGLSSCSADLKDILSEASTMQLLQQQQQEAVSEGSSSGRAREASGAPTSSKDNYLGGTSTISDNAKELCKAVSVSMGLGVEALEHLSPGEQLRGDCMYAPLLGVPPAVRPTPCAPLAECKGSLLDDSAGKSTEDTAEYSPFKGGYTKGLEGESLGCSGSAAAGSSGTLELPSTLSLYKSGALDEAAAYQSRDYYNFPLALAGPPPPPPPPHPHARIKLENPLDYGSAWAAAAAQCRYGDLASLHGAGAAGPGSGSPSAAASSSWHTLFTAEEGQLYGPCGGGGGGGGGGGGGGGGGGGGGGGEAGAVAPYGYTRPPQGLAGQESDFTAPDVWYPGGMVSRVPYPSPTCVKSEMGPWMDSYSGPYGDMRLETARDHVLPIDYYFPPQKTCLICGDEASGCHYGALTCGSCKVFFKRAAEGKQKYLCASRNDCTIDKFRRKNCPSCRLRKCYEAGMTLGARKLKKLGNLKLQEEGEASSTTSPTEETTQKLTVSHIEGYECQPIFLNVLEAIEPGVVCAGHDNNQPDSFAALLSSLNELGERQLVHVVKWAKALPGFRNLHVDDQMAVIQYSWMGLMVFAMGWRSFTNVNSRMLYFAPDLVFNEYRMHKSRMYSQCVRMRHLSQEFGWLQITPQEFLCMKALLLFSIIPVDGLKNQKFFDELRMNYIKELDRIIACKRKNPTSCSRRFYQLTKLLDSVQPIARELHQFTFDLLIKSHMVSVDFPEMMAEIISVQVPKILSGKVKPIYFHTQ

In assay [2] the target is Synaptic vesicular amine transporter (Rattus norvegicus, UniProt Q01827). In kind it is functional.
Chain of Synaptic vesicular amine transporter (Q01827 whole entry): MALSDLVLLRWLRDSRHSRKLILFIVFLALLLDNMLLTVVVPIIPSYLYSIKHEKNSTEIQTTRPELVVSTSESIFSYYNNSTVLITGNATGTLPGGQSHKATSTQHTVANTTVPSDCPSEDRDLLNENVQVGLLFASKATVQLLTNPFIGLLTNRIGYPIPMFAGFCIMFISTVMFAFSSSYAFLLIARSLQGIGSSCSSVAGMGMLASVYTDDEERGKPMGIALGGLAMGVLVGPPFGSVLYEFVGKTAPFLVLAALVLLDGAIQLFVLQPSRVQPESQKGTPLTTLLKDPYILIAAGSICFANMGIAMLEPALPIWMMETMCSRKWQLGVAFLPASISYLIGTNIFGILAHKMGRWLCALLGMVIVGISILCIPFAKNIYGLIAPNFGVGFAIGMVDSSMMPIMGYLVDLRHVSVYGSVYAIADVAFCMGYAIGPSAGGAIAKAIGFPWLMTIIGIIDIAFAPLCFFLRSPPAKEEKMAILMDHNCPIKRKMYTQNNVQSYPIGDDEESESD
Assay [3] addresses Voltage-dependent L-type calcium channel subunit alpha-1C (Homo sapiens, UniProt Q13936). Format: functional, cell-based.
The target in assay [4] is Acetylcholinesterase (Homo sapiens, UniProt P22303). Format: functional.
Chain of Acetylcholinesterase (P22303 whole entry): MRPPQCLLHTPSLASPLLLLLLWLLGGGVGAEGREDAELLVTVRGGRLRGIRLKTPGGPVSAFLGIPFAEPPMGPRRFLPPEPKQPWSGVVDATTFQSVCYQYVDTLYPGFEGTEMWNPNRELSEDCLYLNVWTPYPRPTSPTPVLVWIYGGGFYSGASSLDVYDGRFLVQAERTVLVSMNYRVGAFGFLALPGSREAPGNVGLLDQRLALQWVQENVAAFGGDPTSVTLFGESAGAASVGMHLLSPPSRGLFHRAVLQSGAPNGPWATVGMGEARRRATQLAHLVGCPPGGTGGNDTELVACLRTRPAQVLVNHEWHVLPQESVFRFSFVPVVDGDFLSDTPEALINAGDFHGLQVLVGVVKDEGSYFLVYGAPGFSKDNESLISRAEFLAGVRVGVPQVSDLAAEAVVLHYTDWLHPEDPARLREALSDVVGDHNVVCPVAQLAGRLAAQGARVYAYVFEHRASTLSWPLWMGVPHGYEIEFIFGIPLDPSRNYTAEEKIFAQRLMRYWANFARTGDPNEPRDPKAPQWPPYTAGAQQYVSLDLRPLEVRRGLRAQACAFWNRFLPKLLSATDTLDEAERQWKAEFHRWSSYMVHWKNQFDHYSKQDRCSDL
Assay [5] has as its target Estrogen receptor beta (Homo sapiens, UniProt Q92731).
For assay [6], the target named is T2, Alpha-2A adrenergic receptor (Homo sapiens, UniProt P08913).
T2 sequence (P08913 whole entry): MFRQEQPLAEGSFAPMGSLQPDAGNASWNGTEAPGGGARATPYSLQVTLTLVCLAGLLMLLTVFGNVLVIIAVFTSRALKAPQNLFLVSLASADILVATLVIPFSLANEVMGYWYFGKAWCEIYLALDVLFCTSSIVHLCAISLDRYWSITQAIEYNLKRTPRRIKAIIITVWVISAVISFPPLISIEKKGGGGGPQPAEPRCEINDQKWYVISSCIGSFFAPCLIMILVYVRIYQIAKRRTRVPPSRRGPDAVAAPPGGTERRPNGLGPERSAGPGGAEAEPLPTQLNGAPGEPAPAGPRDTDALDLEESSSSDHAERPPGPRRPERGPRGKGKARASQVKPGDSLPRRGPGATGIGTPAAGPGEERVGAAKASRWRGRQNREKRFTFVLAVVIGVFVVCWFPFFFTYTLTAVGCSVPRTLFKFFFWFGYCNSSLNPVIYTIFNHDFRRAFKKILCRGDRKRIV

Assay [7] deals with T3, D(4) dopamine receptor (Homo sapiens, UniProt P21917).
T3 sequence (P21917 whole entry): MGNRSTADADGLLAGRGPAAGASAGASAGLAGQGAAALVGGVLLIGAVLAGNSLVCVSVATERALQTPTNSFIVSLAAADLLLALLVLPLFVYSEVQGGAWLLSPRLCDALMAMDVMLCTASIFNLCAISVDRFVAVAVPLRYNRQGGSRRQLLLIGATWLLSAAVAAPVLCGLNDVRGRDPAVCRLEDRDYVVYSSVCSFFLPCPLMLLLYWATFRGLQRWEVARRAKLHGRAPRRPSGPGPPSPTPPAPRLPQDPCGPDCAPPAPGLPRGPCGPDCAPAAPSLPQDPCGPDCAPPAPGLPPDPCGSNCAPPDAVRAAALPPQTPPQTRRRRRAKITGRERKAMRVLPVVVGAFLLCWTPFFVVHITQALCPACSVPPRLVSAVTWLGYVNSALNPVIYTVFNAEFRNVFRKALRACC

For assay [8], the target named is Substance-P receptor (Homo sapiens, UniProt P25103).
Chain of Substance-P receptor (P25103 whole entry): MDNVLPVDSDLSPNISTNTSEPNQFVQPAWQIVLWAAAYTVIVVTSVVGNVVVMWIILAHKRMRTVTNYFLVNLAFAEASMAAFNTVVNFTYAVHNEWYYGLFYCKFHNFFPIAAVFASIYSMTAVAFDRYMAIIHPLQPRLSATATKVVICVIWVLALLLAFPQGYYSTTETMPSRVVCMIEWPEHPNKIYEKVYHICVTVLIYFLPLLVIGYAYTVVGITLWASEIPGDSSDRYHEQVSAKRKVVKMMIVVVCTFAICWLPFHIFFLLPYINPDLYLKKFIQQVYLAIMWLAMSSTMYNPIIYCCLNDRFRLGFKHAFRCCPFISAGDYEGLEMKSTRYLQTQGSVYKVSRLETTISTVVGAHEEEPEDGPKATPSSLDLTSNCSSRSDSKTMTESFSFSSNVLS
In assay [9] the target is T4, Alpha-1A adrenergic receptor (Homo sapiens, UniProt P35348).
T4 sequence (P35348 whole entry): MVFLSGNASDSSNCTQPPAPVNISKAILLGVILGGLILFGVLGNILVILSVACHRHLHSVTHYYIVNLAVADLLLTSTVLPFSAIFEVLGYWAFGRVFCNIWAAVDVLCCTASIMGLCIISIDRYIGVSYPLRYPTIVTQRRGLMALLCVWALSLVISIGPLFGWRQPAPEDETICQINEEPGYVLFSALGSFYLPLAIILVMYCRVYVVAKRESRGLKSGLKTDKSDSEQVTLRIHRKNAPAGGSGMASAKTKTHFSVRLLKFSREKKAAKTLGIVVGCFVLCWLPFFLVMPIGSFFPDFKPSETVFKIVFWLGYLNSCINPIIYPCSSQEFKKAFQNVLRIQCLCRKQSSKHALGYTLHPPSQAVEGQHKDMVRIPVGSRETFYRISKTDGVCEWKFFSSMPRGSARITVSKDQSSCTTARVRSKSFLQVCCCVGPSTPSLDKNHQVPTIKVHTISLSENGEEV

The target of assay [10] is 5-hydroxytryptamine receptor 6 (Homo sapiens, UniProt P50406).
Chain of 5-hydroxytryptamine receptor 6 (P50406 whole entry): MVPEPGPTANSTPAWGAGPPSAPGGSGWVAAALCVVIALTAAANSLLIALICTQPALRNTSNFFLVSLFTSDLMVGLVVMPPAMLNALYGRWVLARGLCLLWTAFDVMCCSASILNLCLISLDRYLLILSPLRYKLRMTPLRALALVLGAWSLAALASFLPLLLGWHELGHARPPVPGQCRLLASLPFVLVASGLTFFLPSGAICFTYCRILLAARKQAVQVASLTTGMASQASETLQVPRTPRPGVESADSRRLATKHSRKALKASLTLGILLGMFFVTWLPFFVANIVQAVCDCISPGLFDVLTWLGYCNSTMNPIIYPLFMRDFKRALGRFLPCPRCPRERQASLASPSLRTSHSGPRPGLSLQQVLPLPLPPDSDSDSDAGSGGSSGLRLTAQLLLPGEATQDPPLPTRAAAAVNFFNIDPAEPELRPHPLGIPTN
The target in assay [11] is 5-hydroxytryptamine receptor 7 (Homo sapiens, UniProt P34969).

SMILES strings stand for the structures.
Further: assay procedure not described here.

Chain of Voltage-dependent L-type calcium channel subunit alpha-1C (Q13936 whole entry): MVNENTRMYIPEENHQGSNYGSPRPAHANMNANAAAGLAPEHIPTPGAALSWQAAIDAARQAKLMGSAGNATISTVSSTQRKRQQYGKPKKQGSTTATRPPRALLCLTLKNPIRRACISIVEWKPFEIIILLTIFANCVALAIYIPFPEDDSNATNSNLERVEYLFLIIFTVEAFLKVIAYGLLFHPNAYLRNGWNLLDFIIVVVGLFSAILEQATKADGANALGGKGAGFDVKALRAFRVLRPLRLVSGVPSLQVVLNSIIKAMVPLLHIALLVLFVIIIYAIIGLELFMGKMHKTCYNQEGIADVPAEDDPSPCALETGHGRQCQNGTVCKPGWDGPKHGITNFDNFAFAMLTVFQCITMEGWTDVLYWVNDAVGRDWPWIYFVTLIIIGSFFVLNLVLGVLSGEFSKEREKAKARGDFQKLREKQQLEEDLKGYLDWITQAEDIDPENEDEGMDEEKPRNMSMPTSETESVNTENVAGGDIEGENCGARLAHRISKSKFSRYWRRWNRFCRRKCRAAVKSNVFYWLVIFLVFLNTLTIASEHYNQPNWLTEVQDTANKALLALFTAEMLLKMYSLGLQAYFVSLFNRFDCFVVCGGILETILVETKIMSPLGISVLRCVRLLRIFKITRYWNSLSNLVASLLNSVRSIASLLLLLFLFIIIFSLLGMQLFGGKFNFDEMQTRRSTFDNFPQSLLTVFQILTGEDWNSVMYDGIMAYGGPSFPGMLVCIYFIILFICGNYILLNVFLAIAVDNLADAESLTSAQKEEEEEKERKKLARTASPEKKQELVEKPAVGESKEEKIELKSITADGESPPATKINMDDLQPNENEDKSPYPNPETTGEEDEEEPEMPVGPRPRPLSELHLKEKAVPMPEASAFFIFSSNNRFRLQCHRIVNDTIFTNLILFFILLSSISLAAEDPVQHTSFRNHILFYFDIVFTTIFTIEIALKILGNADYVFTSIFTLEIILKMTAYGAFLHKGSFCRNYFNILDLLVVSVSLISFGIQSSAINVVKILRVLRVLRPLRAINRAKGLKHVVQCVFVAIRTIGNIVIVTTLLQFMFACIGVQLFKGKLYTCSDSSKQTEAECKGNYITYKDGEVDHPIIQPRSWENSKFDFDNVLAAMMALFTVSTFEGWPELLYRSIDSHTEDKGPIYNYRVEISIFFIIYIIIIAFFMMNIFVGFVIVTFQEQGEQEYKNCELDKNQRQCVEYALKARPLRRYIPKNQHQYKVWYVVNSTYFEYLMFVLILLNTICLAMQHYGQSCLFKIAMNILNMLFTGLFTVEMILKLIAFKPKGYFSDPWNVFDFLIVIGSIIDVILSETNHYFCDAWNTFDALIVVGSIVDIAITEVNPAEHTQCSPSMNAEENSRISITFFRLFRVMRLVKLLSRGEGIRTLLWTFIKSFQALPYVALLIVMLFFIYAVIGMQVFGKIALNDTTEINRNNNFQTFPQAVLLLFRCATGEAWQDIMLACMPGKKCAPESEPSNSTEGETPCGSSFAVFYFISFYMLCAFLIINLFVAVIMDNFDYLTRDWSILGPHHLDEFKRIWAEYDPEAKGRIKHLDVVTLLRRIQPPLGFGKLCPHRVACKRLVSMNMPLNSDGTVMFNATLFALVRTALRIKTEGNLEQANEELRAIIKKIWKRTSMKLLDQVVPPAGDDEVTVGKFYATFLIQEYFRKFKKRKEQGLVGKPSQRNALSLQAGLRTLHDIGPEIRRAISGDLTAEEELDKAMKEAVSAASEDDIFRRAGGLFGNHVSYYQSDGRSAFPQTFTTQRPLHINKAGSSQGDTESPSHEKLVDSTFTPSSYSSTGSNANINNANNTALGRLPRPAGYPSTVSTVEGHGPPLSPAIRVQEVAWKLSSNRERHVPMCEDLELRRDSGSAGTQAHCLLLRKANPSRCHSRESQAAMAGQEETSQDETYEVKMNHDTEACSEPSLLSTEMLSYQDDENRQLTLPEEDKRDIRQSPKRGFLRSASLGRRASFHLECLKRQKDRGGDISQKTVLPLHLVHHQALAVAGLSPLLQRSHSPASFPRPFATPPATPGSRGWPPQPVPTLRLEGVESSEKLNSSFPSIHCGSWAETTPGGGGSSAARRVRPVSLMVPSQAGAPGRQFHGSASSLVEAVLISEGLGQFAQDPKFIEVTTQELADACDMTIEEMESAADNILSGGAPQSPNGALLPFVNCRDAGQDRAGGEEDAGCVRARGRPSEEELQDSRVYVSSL
Chain of Estrogen receptor beta (Q92731 whole entry): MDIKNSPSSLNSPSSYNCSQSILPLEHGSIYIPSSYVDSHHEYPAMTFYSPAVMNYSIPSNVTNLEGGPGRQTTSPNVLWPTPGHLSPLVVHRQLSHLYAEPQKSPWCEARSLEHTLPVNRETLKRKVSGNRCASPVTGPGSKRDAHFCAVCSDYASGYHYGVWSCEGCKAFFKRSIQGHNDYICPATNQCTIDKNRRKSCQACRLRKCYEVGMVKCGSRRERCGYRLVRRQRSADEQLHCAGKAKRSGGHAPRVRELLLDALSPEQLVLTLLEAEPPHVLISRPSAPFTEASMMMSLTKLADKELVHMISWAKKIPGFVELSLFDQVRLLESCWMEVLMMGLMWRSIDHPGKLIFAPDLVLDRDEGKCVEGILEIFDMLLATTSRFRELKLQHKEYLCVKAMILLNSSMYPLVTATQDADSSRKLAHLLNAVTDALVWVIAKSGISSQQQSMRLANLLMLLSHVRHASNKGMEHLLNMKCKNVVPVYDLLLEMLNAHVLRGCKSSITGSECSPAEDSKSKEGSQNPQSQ

In the case of `Cc1ccc([C@@H]2O[C@H](CO)[C@@H](O)[C@H](O)[C@H]2O)cc1Cc1ccc(-c2ccc(F)cc2)s1` [CANAGLIFLOZIN ANHYDROUS], the half-maximal activity concentration (AC50) in assay [1] is greater than 30 µM; in assay [2] it was 20 µM.
In the case of `CNCC[C@H](Oc1cccc2ccccc12)c1cccs1` [DULOXETINE], the values for the AC50 in assay [3] and in assay [2] were 29 µM and 1.4 µM, respectively.
On to `O=C1NC(=O)C(c2ccccc2)(c2ccccc2)N1` [PHENYTOIN], for which the concentration at half-maximal activity (AC50) in assay [3] was greater than 50 µM; in assay [4], greater than 30 µM.
On to `CC(C)COc1ccc(CNC(=O)N(Cc2ccc(F)cc2)C2CCN(C)CC2)cc1` [PIMAVANSERIN], for which the values for the AC50 in assay [1] and in [2] were greater than 30 µM and 3.1 µM, respectively.
With `CC(C)C[C@H](CN)CC(=O)O` [PREGABALIN], the AC50 in [5] and in [4] was greater than 30 µM throughout.
Consider `NC(=O)c1ncn([C@@H]2O[C@H](CO)[C@@H](O)[C@H]2O)n1` [RIBAVIRIN], for which the AC50 in [3] was greater than 50 µM; in [2] it was greater than 30 µM.
The matching figures for `O=C(Nc1c(Cl)cncc1Cl)c1ccc(OC(F)F)c(OCC2CC2)c1` [ROFLUMILAST]: greater than 50 µM and 12.1 µM.
Regarding `CCCN(CCC)CCc1cccc2c1CC(=O)N2` [ROPINIROLE], the AC50 in assay [5] was greater than 30 µM; in assay [6], 12 µM; in [4] it was greater than 30 µM.
`CC(C)N(CCCCOCC(=O)NS(C)(=O)=O)c1cnc(-c2ccccc2)c(-c2ccccc2)n1` [SELEXIPAG]: the AC50 in assay [3] was greater than 50 µM; in assay [2], greater than 30 µM.
As to `CC(=O)S[C@@H]1CC2=CC(=O)CC[C@]2(C)[C@H]2CC[C@@]3(C)[C@@H](CC[C@@]34CCC(=O)O4)[C@H]12` [SPIRONOLACTONE], the AC50 in assay [7] was greater than 10 µM; in assay [8] it was greater than 10 µM; in [6] it was greater than 10 µM; in assay [9], greater than 10 µM; in assay [4], greater than 30 µM.
In turn, `NC(=O)NS(=O)(=O)c1ccc(N)cc1` [SULFACARBAMIDE] displayed an AC50 in [2] greater than 30 µM.
Consider `CCCCCCCCNC(C)C(O)c1ccc(SC(C)C)cc1` (centres undefined) [SULOCTIDIL], for which the results for the AC50 in [1] and in assay [2] were greater than 30 µM and 0.0013 µM, respectively.
In the case of `CCCCNc1ccc(C(=O)OCCN(C)C)cc1` [TETRACAINE], the half-maximal activity concentration (AC50) is greater than 30 µM in assay [3]; 4.14 µM in assay [7]; greater than 10 µM in assay [10]; greater than 10 µM in [11]; greater than 10 µM in assay [8]; greater than 10 µM in assay [6]. In assay [9], this compound returned an AC50 greater than 10 µM.
